Experimental data as given in patent US20230390315A1, “COMPOSITIONS AND METHODS FOR TREATING ISCHEMIC CONDITIONS” (The Regents of the University of California, priority 2020, published 2023).

How the values were obtained:
[1] = test system: VEGFR2; assay: Western blot of VEGFR2 protein mass in human ECs; assay type: cell-based; conditions: hRMVEC, HUVEC and hDMVECs; 40 uM ManN
Procedure: (§1) Cells were allowed to reach 80% confluency in 12-well plates. […] At various time points, plates were taken out of the incubator and kept on ice. Cell monolayers were first washed once with ice-cold PBS before lysis with 250 μl of Pierce RIPA buffer (ThermoFisher Scientific, Rockford, IL) or use 50 mM Tris-HCl (pH 7.6), 150 mM NaCl, 10% Glycerol, 1% NP-40 containing protease/Phosphatase inhibitor cocktail (100×) (Cell signaling, #5872). Lysates were collected and mixed with 4×Bolt LDS Sample Buffer (Novex, Carlsbad, CA) in the presence of Halt protease inhibitors and phosphatase inhibitor cocktail (ThermoFisher scientific, #NP0007). The samples were subjected to SDS-PAGE (Bolt 4-12% Bis-Tris Plus, Invitrogen) using Bolt MES SDS running buffer or NuPAGE 3-8% Tris-Acetate gel using Tris-Acetate SDS running buffer (Novex). HUVECs (passage 6-8) were plated in EBM-2 basal medium (Lonza) with 0.2% FBS. […] Equal amounts of protein lysates were analyzed by SDS-PAGE and blotted with the indicated antibodies. Proteins were transferred using Tris-Glycine buffer with 20% Methanol (Proteonomics grade) (Apex BioResearch Products). Membranes were first incubated with 5% milk in TBST, pH 7.6 (TEKnova, Hollister, CA), followed by blotting with primary and secondary antibodies. […]

[2] = test system: αv integrin, Neuropilin-1, VE-cadherin and bFGFR1; assay: Protein mass of other N-glycosylated proteins in BCEC; assay type: cell-based, bovine
Procedure: as §1

[3] = test system: AML12 liver cells; assay: AML12 proliferation assay; assay type: cell-based, mouse
Procedure: Proliferation assays with fibroblasts were done in low-glucose DMEM containing 1% FBS, with or without 10 ng/ml bFGF, or 100 ng/ml human EGF and the assay was ended at day 3. ARPE-19 cells were gently lifted with 0.025% trypsin and plated in RtEGM media (Clonetics) containing 2% FBS, L-glutamine, human bFGF and GA-1000. Once cells were attached to plates, serum-free RtEGM media was used to maintain the cultures. For proliferation assays, 1500 human RPE cells were plated into 96-well plates in low-glucose DMEM containing 1% FBS. A673, U87MG, Calu6 and AML12 cells were grown until confluent and were then harvested and re-suspended in appropriate assay media. For proliferation assays, cells were plated at the density of 1000-2000 cells/well in low-glucose DMEM containing 5% FBS or otherwise stated. Bovine pituitary cells (pituitary folliculostellate cells) were isolated as previously described. For proliferation assays with human epidermal keratinocytes, human DMVECs and human dermal fibroblast cells, 1000 cells/well were plated in low-glucose DMEM containing 1% FBS with or without various growth factors. The assay was ended at day 3 for bovine pituitary cells and at day 4 for all the other cell types. […] Four days later, tumor cell growth was measured by the MTS assay (Promega, Madison, WI), a colorimetric assay that measures metabolic activity of viable cells. […]

[4] = biological target: T1, α-mannosidase from Jack Bean (Canavalia ensiformis, UniProt C0HJB3); assay: α-mannosidase activity assay; assay type: biochemical
T1 construct: purchased M7257
T1 sequence (C0HJB3 whole entry): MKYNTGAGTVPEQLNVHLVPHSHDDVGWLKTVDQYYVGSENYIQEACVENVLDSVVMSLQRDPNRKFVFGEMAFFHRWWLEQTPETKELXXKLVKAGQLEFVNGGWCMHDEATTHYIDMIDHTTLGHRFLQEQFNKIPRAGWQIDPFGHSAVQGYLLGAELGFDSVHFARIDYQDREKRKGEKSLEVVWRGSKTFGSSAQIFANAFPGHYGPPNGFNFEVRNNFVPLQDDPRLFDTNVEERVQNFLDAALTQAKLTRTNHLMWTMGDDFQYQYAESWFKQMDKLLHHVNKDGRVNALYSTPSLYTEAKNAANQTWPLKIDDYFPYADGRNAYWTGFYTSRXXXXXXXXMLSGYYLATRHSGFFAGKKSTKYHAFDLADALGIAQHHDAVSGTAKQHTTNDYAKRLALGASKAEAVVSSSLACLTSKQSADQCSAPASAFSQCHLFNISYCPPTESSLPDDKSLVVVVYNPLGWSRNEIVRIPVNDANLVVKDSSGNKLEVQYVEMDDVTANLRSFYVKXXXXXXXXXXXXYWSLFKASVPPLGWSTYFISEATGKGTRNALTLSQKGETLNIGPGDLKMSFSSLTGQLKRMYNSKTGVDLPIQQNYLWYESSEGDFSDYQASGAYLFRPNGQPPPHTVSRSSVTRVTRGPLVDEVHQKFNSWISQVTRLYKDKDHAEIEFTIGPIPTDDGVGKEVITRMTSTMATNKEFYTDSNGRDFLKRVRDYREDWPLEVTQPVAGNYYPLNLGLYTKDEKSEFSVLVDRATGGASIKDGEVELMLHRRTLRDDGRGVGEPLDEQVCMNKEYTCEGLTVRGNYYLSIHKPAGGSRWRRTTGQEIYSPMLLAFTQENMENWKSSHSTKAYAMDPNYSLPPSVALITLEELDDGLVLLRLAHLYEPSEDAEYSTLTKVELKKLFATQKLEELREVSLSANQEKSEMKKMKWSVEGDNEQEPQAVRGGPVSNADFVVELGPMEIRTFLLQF
Procedure: a-mannosidase activity was measured using substrate p-nitrophenyl α-mannopyranoside (1 mM). Enzyme from Jack Bean ([MUT]) (final concentration of 0.077 U) was incubated at 37° C. in a final volume of 50 μl of 50 mM potassium phosphate buffer, pH 7.5. α-glucosidase was assayed with substrate p-nitrophenyl α-glucoside (7 mM). […] The incubation was stopped by addition of an equal volume of acid-based stop solution (R&D systems, 895032).

[5] = ManN stability in wound fluid from S. aureus infected mice; assay type: in vitro ADME, mouse; conditions: up to 24 hours at 37° C.
Procedure: To test ManN stability in wound fluid collected from mice with skin infection as described below, 1.5 μl of 5% ManN solution was added to each 200 μl wound fluid which was first diluted 1:1 (v/v) with PBS. At each time point, samples were taken from 37° C. incubator and stored at −80° C. Plasma proteins were precipitated by adding ice cold acetonitrile to plasma: acetonitrile 1:3 (v/v) ratio. Samples were kept over ice for 1 hr and then centrifuged at 12000 g for 10 min at 7° C. to form a pellet. Supernatants were transferred to other tubed, dried down on a Speed Vac and then reconstituted in UltraPure distilled water and filtered through pre-washed Nanosep 3K Omega filters (Pall Corporation). The filtrate was dried down on Speed Vac. The dry samples were dissolved in 100 μl of water and 2 μL plasma or wound fluid sample was subjected to HPLC analysis. Neutral and amino sugars were separated on a Dionex CarboPac™ PA1 column 4 mm×250 mm with 4 mm×50 mm guard column. An isocratic gradient of 19 mM sodium hydroxide with 0.95 mM sodium acetate was used at a flow rate of 1 ml/min with 20 min run. Data was collected using the Dionex ICS-3000 HPLC system with pulsed amperometric detector using standard Quad waveform. ManN was identified and quantified by comparison with monosaccharide standard using Thermo Scientific Chromeleon software. No ManN samples served as negative controls. […]

N[C@H](C=O)[C@@H](O)[C@H](O)[C@H](O)CO [ManN, 2-Amino-2-deoxy-D-mannose]
change in VEGFR2 protein mass [1]: significant change in VEGFR2 protein mass | protein mass of other N-glycosylated receptors/adhesion molecules [2]: affected as well | cellular toxicity, sensitivity among cell types ([3]; 5 mM level of ManN): most sensitive | proliferation of AML12 ([3]; alone or in combination with growth factors): no increases in proliferation | concentration showing inhibitory activity [4]: 400 µM | loss of free ManN on incubation with wound fluid [5]: No significant loss of free ManN
